System: HBsAg
Assay: HepG2.2.15 cells primary screen assay: HBsAg assay (CLIA of secreted HBsAg)
Assay type: cell-based, HBV
Conditions: Hepatitis B virus
Method: Example 23: HepG2.2.15 Cells Primary Screen Assay
HepG2.2.15 cells (Acs et al. Proc Natl Acad Sci USA, 84, (1987), 4641-4), a constitutively HBV-expressing cell line were cultured in DMEM+Glutamax-I medium (Invitrogen, Carlsbad, Calif., USA), supplemented with 10% fetal bovine serum (Invitrogen) and G418 (Invitrogen) at a final concentration of 200 mg/L and maintained in 5% CO2 at 37° C.
HepG2.2.15 cells were seeded in duplicate into white, 96-well plates at 1.5×10^4 cells/well. The cells were treated with a three-fold serial dilution series of the compounds in DMSO. The final DMSO concentration in all wells was 1% and DMSO was used as no drug control.
The HBsAg chemiluminescence immunoassay (CLIA) kit (Autobio Diagnostics Co., Zhengzhou, China, Catalog number: CL0310-2) was used to measure the levels of secreted HBV antigens semi-quantitatively. For the detection 50 μL/well culture supernatant was used and HBsAg was quantified using HBsAg chemiluminescence immunoassay (CLIA) kit (Autobio Diagnostics Co., Zhengzhou, China, Catalog number: CL0310-2), 50 μL of the supernatant was transferred to the CLIA assay plate and 50 μL of enzyme conjugate reagent was added into each well. The plates were sealed and gently agitated for 1 hour at room temperature. The supernatant-enzyme-mixture was discarded and wells were washed 6 times with 300 μL of PBS. The residual liquid was removed by plating the CLIA plate […] on absorbent tissue paper. 25 μL of substrates A and B were added to each well. Luminance was measured using a luminometer (Mithras LB 940 Multimode Microplate Reader) after 10 minutes incubation. Dose-response curves were generated and the IC50 value was extrapolated by using the E-WorkBook Suite (ID Business Solutions Ltd., Guildford, UK). The IC50 was defined as the compound concentration (or conditioned media log dilution) at which HBsAg secretion was reduced by 50% compared to the no drug control.
The compounds of the present invention were tested for their capacity to inhibit HBsAg as described herein.

| Structure (SMILES) | IC50 [nM] |
| --- | --- |
| COC(=O)C1=C(CN2CCN(CCCCCCOc3cc4c(cc3OC)-c3cc(=O)c(C(=O)O)cn3C(C(C)(C)C)C4)CC2)NC(c2nccs2)=N[C@H]1c1ccc(F)cc1Cl (stereo partly drawn) [Example 1, 6-tert-butyl-9-[6-[4-[[(4R)-4-(2-chloro-4-fluoro-phenyl)-5-methoxycarbonyl-2-thiazol-2-yl-1,4-dihydropyrimidin-6-yl]methyl]piperazin-1-yl]hexoxy]-10-methoxy-2-oxo-6,7-dihydrobenzo[a]quinolizine-3-carboxylic Acid] | 41 |
| COC(=O)C1=C(CN2CCN(CCCCCOc3cc4c(cc3OC)-c3cc(=O)c(C(=O)O)cn3C(C(C)(C)C)C4)CC2)NC(c2nccs2)=N[C@H]1c1ccc(F)cc1Cl (stereo partly drawn) [Example 2, 6-tert-butyl-9-[5-[4-[[(4R)-4-(2-chloro-4-fluoro-phenyl)-5-methoxycarbonyl-2-thiazol-2-yl-1,4-dihydropyrimidin-6-yl]methyl]piperazin-1-yl]pentoxy]-10-methoxy-2-oxo-6,7-dihydrobenzo[a]quinolizine-3-carboxylic Acid] | 88 |
| COC(=O)C1=C(CN2CCN(CCCCOc3cc4c(cc3OC)-c3cc(=O)c(C(=O)O)cn3C(C(C)(C)C)C4)CC2)NC(c2nccs2)=N[C@H]1c1ccc(F)cc1Cl (stereo partly drawn) [Example 3, 6-tert-butyl-9-[4-[4-[[(4R)-4-(2-chloro-4-fluoro-phenyl)-5-methoxycarbonyl-2-thiazol-2-yl-1,4-dihydropyrimidin-6-yl]methyl]piperazin-1-yl]butoxy]-10-methoxy-2-oxo-6,7-dihydrobenzo[a]quinolizine-3-carboxylic Acid] | 45 |
| COC(=O)C1=C(CN2CCN(CCCOc3cc4c(cc3OC)-c3cc(=O)c(C(=O)O)cn3C(C(C)(C)C)C4)CC2)NC(c2nccs2)=N[C@H]1c1ccc(F)cc1Cl (stereo partly drawn) [Example 4, 6-tert-butyl-9-[3-[4-[[(4R)-4-(2-chloro-4-fluoro-phenyl)-5-methoxycarbonyl-2-thiazol-2-yl-1,4-dihydropyrimidin-6-yl]methyl]piperazin-1-yl]propoxy]-10-methoxy-2-oxo-6,7-dihydrobenzo[a]quinolizine-3-carboxylic Acid] | 182 |
| COC(=O)C1=C(CN2CCN(CCCOc3cc4c(cc3OC)-c3cc(=O)c(C(=O)O)cn3C(C(C)(C)C)C4)C(C(=O)O)C2)NC(c2nccs2)=N[C@H]1c1ccc(F)cc1Cl (stereo partly drawn) [Example 5, 6-tert-butyl-9-[3-[2-carboxy-4-[[(4R)-4-(2-chloro-4-fluoro-phenyl)-5-methoxycarbonyl-2-thiazol-2-yl-1,4-dihydropyrimidin-6-yl]methyl]piperazin-1-yl]propoxy]-10-methoxy-2-oxo-6,7-dihydrobenzo[a]quinolizine-3-carboxylic Acid] | 3480 |
| COC(=O)C1=C(CN2CCN(CCCCCCOc3cc4c(cc3OC)-c3cc(=O)c(C(=O)O)cn3C(C(C)(C)C)C4)CC2C(=O)O)NC(c2nccs2)=N[C@H]1c1ccc(F)cc1Cl (stereo partly drawn) [Example 6, 6-tert-butyl-9-[6-[3-carboxy-4-[[(4R)-4-(2-chloro-4-fluoro-phenyl)-5-methoxycarbonyl-2-thiazol-2-yl-1,4-dihydropyrimidin-6-yl]methyl]piperazin-1-yl]hexoxy]-10-methoxy-2-oxo-6,7-dihydrobenzo[a]quinolizine-3-carboxylic Acid] | 262 |
| COC(=O)C1=C(CN2CCN(CCCCCCOc3cc4c(cc3OC)-c3cc(=O)c(C(=O)O)cn3C(C(C)(C)C)C4)C(C(=O)O)C2)NC(c2nccs2)=N[C@H]1c1ccc(F)cc1Cl (stereo partly drawn) [Example 7, 6-tert-butyl-9-[6-[2-carboxy-4-[[(4R)-4-(2-chloro-4-fluoro-phenyl)-5-methoxycarbonyl-2-thiazol-2-yl-1,4-dihydropyrimidin-6-yl]methyl]piperazin-1-yl]hexoxy]-10-methoxy-2-oxo-6,7-dihydrobenzo[a]quinolizine-3-carboxylic Acid] | 190 |
| COC(=O)C1=C(CN2CCN3C(=O)N(CCCCCCOc4cc5c(cc4OC)-c4cc(=O)c(C(=O)O)cn4C(C(C)(C)C)C5)CC3C2)NC(c2nccs2)=N[C@H]1c1ccc(F)cc1Cl (stereo partly drawn) [Example 8, 6-tert-butyl-9-[6-[7-[[(4R)-4-(2-chloro-4-fluoro-phenyl)-5-methoxycarbonyl-2-thiazol-2-yl-1,4-dihydropyrimidin-6-yl]methyl]-3-oxo-5,6,8,8a-tetrahydro-1H-imidazo[1,5-a]pyrazin-2-yl]hexoxy]-10-methoxy-2-oxo-6,7-dihydrobenzo[a]quinolizine-3-carboxylic Acid] | 48 |
| COC(=O)C1=C(CN(C)CCCCCCOc2cc3c(cc2OC)-c2cc(=O)c(C(=O)O)cn2C(C(C)(C)C)C3)NC(c2nccs2)=N[C@H]1c1ccc(F)cc1Cl (stereo partly drawn) [Example 9, 6-tert-butyl-9-[6-[[(4R)-4-(2-chloro-4-fluoro-phenyl)-5-methoxycarbonyl-2-thiazol-2-yl-1,4-dihydropyrimidin-6-yl]methyl-methyl-amino]hexoxy]-10-methoxy-2-oxo-6,7-dihydrobenzo[a]quinolizine-3-carboxylic Acid] | 113 |
| COC(=O)C1=C(CN2CCOC[C@H]2C(=O)NCCOCCOCCOc2cc3c(cc2OC)-c2cc(=O)c(C(=O)O)cn2C(C(C)(C)C)C3)NC(c2nccs2)=N[C@H]1c1ccc(F)cc1Cl (stereo partly drawn) [Example 10, 6-tert-butyl-9-[2-[2-[2-[[(3S)-4-[[(4R)-4-(2-chloro-4-fluoro-phenyl)-5-methoxycarbonyl-2-thiazol-2-yl-1,4-dihydropyrimidin-6-yl]methyl]morpholine-3-carbonyl]amino]ethoxy]ethoxy]ethoxy]-10-methoxy-2-oxo-6,7-dihydrobenzo[a]quinolizine-3-carboxylic Acid] | 569 |
| COC(=O)C1=C(CN2CCN(CCOCCOCCOc3cc4c(cc3OC)-c3cc(=O)c(C(=O)O)cn3C(C(C)(C)C)C4)C(C(=O)O)C2)NC(c2nccs2)=N[C@H]1c1ccc(F)cc1Cl (stereo partly drawn) [Example 11, 6-tert-butyl-9-[2-[2-[2-[2-carboxy-4-[[(4R)-4-(2-chloro-4-fluoro-phenyl)-5-methoxycarbonyl-2-thiazol-2-yl-1,4-dihydropyrimidin-6-yl]methyl]piperazin-1-yl]ethoxy]ethoxy]ethoxy]-10-methoxy-2-oxo-6,7-dihydrobenzo[a]quinolizine-3-carboxylic Acid] | 6340 |
| COC(=O)C1=C(CN2CCN(CCC(CCCOc3cc4c(cc3OC)-c3cc(=O)c(C(=O)O)cn3C(C(C)(C)C)C4)C(=O)O)CC2)NC(c2nccs2)=N[C@H]1c1ccc(F)cc1Cl (stereo partly drawn) [Example 12, 6-tert-butyl-9-[4-carboxy-6-[4-[[(4R)-4-(2-chloro-4-fluoro-phenyl)-5-methoxycarbonyl-2-thiazol-2-yl-1,4-dihydropyrimidin-6-yl]methyl]piperazin-1-yl]hexoxy]-10-methoxy-2-oxo-6,7-dihydrobenzo[a]quinolizine-3-carboxylic Acid] | 740 |
| COC(=O)C1=C(CN2CCOC[C@H]2C(=O)NCCCCCCOc2cc3c(cc2OC)-c2cc(=O)c(C(=O)O)cn2C(C(C)(C)C)C3)NC(c2nccs2)=N[C@H]1c1ccc(F)cc1Cl (stereo partly drawn) [Example 13, 6-tert-butyl-9-[6-[[(3S)-4-[[(4R)-4-(2-chloro-4-fluoro-phenyl)-5-methoxycarbonyl-2-thiazol-2-yl-1,4-dihydropyrimidin-6-yl]methyl]morpholine-3-carbonyl]amino]hexoxy]-10-methoxy-2-oxo-6,7-dihydrobenzo[a]quinolizine-3-carboxylic Acid] | 85 |
| CCOC(=O)C1=C(COCCCCCCOc2cc3c(cc2OC)-c2cc(=O)c(C(=O)O)cn2C(C(C)(C)C)C3)NC(c2nccs2)=NC1c1ccc(F)cc1Cl (stereo not drawn) [Example 14, 6-tert-butyl-9-[6-[[4-(2-chloro-4-fluoro-phenyl)-5-ethoxycarbonyl-2-thiazol-2-yl-1,4-dihydropyrimidin-6-yl]methoxy]hexoxy]-10-methoxy-2-oxo-6,7-dihydrobenzo[a]quinolizine-3-carboxylic Acid] | 96 |
| CCOC(=O)C1=C(CN2CCN3C(=O)N(CC(C)(C)C(=O)NCCCCCCOc4cc5c(cc4OC)-c4cc(=O)c(C(=O)O)cn4C(C(C)(C)C)C5)C[C@@H]3C2)NC(c2nccs2)=N[C@H]1c1cccc(F)c1Cl (stereo partly drawn) [Example 15, 9-[6-[[3-[(8aS)-7-[[(4R)-4-(2-chloro-3-fluoro-phenyl)-5-ethoxycarbonyl-2-thiazol-2-yl-1,4-dihydropyrimidin-6-yl]methyl]-3-oxo-5,6,8,8a-tetrahydro-1H-imidazo[1,5-a]pyrazin-2-yl]-2,2-dimethyl-propanoyl]amino]hexoxy]-6-tert-butyl-10-methoxy-2-oxo-6,7-dihydrobenzo[a]quinolizine-3-carboxylic Acid] | 41 |

From US11447489B2, “Dihydropyrimidinylthiazole for the treatment and prophylaxis of hepatitis B virus infection” (priority 2017, dated 2022)
